Legend:
[1] = biological target: HIV-1 protease (Human immunodeficiency virus type 1 group M subtype B, UniProt P04585); format: cell-based; conditions: antiviral studies
[2] = tested on: PI-resistant strains; experiment: cross-resistance studies against 63 PI-resistant strains; format: cell-based, HIV; conditions: compared with approved protease inhibitors
[3] = tested on: laboratory-adapted virus; experiment: 48-week resistance selection study and site-directed mutagenesis in vitro; format: cell-based, HIV
Experimental: A 48-week resistance selection study was performed by increasing the concentrations of TMB-607 against a laboratory-adapted virus in vitro.

[4] = solubility; format: physicochemical
[5] = tested on: HIV; conditions: cited from earlier work

SMILES: COC(=O)NC(C(=O)NCCCCC(CO)N(CC(C)C)S(=O)(=O)c1ccc(N)cc1)C(c1ccccc1)c1ccccc1 (stereo not drawn) [TMB-607]
- inhibiting the HIV-1 protease [1]: effective and selective
- levels of reduced susceptibility [2]: lower levels of reduced susceptibility than any of approved Protease inhibitors (PIs)
- mutations selected in the protease open reading frame ([3]; 48 weeks, increasing concentrations of TMB-607, laboratory-adapted virus in vitro): Four mutations in the protease open reading frame were selected
- resistance conferred by single mutations ([3]; site-directed mutagenesis, in vitro): single mutations did not result in significant resistance
- solubility [4]: poor
- protein binding-adjusted antiviral activity EC50 [5]: 23 ng/mL
